# Results from PMC10979003, “Development and crystal structures of a potent second-generation dual degrader of BCL-2 and BCL-xL” (Nature Communications, 2024).
# What was measured:
# BCL-xL D107A = molecular target: T1, BCL-xL D107A (Homo sapiens, UniProt Q07817, D107A); test: AlphaScreen binary binding, BCL-xL D107A; conditions: mean ± s.d., n=3
# T1 construct: BCL-xL (aa 2-212) and BCL-2 (aa 1-207) transformed cells were grown in LB broth; SMT3 (N); made in house; host or cells: E. coli BL21 (DE3) codon plus
# T1 sequence (Q07817 2-212 D107A): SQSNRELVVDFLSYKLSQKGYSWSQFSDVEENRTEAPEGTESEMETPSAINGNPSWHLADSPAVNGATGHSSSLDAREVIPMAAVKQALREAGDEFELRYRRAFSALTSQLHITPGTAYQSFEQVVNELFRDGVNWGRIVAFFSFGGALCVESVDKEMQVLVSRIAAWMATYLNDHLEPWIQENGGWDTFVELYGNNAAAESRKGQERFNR
# Procedure: (§1) To test the binary/ternary binding affinities of compounds to BCL-2/BCL-xL, AlphaScreen displacement binding assay was performed to test the capabilities of testing compounds to displace a Biotin-tagged Bim (Biotin-[…]) or Bad (Biotin-[…]) from BCL-2 or BCL-xL for BCL-2 and BCL-xL binding affinities, respectively. All reagents were diluted in assay buffer of 25 mM HEPES, pH 7.5, 150 mM NaCl, 0.1% BSA, and 0.005% tween 20 prior incubation. To a 96-well PCR plate (VWR, Cat. No. 82006-636) was added 10 μL Biotin-tagged Bim (15 nM for WT or 50 nM for mutants) or Bad (15 nM for WT or 50 nM for mutants), 10 μL series diluted compounds solution (2 or 3 or 4× dilution), and 10 μL self-made 6×His tagged BCL-2 WT or mutants (25 nM WT or 50 nM mutants) or 10 μL self-made BCL-xL WT and mutants (10 nM WT or 50 nM mutants). […] The luminescence signal was detected on a Biotek’s Synergy Neo2 multimode plate reader installed with an AphaScreen filter cube. The Ki values of each compounds were calculated by fitting data into the “Binding-competitive, One site-Fit Ki” function in GraphPad Prism (9.2.0) based on concentrations of Biotin–peptide used and experimentally determined Kd values of each 6×His protein &&&and Biotin–Peptide pair.
# BCL-2 R110A E114A = molecular target: T2, BCL-2 R110A E114A (Homo sapiens, UniProt P10415, E114A/R110A); test: AlphaScreen binary binding, BCL-2 R110A E114A; conditions: mean ± s.d., n=3
# T2 construct: BCL-xL (aa 2-212) and BCL-2 (aa 1-207) transformed cells were grown in LB broth; made in house; host or cells: E. coli BL21 (DE3) codon plus
# T2 sequence (P10415 1-207 R110A/E114A): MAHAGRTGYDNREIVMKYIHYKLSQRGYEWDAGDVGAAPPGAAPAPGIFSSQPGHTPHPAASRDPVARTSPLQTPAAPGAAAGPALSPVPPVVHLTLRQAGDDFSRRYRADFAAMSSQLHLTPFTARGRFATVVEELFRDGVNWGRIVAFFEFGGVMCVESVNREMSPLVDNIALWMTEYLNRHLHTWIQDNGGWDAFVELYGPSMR
# Procedure: as §1
# [1] = molecular target: T3, VCB/PROTAC/BCL-2 ternary complex (Homo sapiens, UniProt P10415+P40337); test: AlphaLISA ternary complex assay VCB/PROTAC/BCL-2; assay type: binding; conditions: cell-free AlphaLISA
# T3 construct: BCL-xL (aa 2-212) and BCL-2 (aa 1-207) transformed cells were grown in LB broth; GST (on the VCB complex); made in house; host or cells: E. coli BL21 (DE3) codon plus (stated for the BCL-2 construct)
# T3 sequence (Q15370 whole entry, the tested form may be a part): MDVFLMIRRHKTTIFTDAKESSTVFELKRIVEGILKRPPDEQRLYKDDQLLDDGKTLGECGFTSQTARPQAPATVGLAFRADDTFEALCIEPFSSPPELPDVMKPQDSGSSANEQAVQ
# T3 sequence (Q15369 17-112, further chain): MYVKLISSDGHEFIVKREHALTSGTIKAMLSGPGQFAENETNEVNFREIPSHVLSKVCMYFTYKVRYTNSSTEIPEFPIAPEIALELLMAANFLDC
# T3 sequence (P40337 54-213): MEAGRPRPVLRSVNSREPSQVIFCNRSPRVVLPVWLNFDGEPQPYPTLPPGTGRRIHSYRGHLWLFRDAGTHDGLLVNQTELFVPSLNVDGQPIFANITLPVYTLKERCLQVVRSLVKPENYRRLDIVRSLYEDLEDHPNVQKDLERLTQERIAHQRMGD
# T3 sequence (P10415 1-207): as the sequence (P10415 1-207 R110A/E114A) above, with A110R, A114E counted along it
# Procedure: Assays were performed at room temperature. All reagents were diluted in assay buffer of 25 mM HEPES, pH 7.5, 150 mM NaCl, 0.1% BSA, and 0.005% tween 20. To a 96-well PCR plate (VWR, Cat. No. 82006-636) were added 10 μL self-made 6×His tagged BCL-xL (100 nM) or BCL-2 (150 nM), 10 μL series diluted compounds solution (4× dilution) and 10 μL of self-made GST-VCB (100 nM). After incubating at room temperature for 15 min, 5 µL of alpha glutathione-donor beads (160 μg/mL, PerkinElmer, Cat. No. 6765300) and 5 µL of anti-6×His acceptor beads (160 μg/mL, PerkinElmer, Cat. No. AL128M) to each well and incubated for additional 45 min in the dark before being transferred to two adjacent wells (17 µL each) of 384-well white OptiPlate (PerkinElmer, Cat. No. 6008280). The luminescence signal was detected on a Biotek’s Synergy Neo2 multimode plate reader installed with an AphaScreen filter cube. Intensity values were plotted in Graphpad Prism (9.2.0) with PROTAC concentration values represented on a log10 scale.
# BCL-2 E114A Q118A = molecular target: T4, BCL-2 E114A Q118A (Homo sapiens, UniProt P10415, E114A/Q118A); test: AlphaScreen binary binding, BCL-2 E114A Q118A; conditions: mean ± s.d., n=3
# T4 construct: BCL-xL (aa 2-212) and BCL-2 (aa 1-207) transformed cells were grown in LB broth; made in house; host or cells: E. coli BL21 (DE3) codon plus
# T4 sequence (P10415 1-207 E114A/Q118A): as the sequence (P10415 1-207 R110A/E114A) above, with A110R, Q118A counted along it
# Procedure: as §1
# BCL-2 E114A = molecular target: T5, BCL-2 E114A (Homo sapiens, UniProt P10415+P40337, E114A); test: Polyubiquitin chain formation assay, BCL-2 E114A; assay type: biochemical; conditions: 10 μM WH244, 1 h, Fig. 5d
# T5 construct: BCL-xL (aa 2-212) and BCL-2 (aa 1-207) transformed cells were grown in LB broth; VHL (aa 54-213) and ElonginBC were co-transformed (VCB); 6xHis (TEV-cleavable) (N, cleaved yes); made in house; host or cells: E. coli BL21 (DE3) codon plus (BCL-2, VCB); Trichoplusia ni High-Five insect cells (Cullin2-Rbx1)
# Procedure: WT BCL-xL/BCL-2 (5 μM) were ubiquitinated in the presence of E1 SpUba1 (0.1 μM), E2, UbcH5c (1 μM) and Cdc34 (1 μM), ubiquitin (75 μM), VHL-Elongin C-Elongin B complex (0.35 μM), neddylated Cullin2-Rbx1 complex (0.35 μM) and 753b or WH244 (10 μM) at 37 °C in a buffer of 50 mM HEPES, pH 7.5, 10 mM MgCl2, 100 mM NaCl, 2 mM ATP, and 0.5 mM DTT. The reaction mixture was incubated for indicated time points (Supplementary Fig. 4a, b, d, e, g, h) and was terminated by the addition of 1× reducing SDS-PAGE loading buffer. The polyUb chain formation was assessed using immunoblotting as described earlier. For polyUb chain formation on mutant proteins used in this study, the above protocol was used with a fixed time-point of 1 h.
Ki (BCL-xL D107A) [nM],SMILES,Ki (BCL-2 R110A E114A) [nM],Ternary complex formation with BCL-2 (comparison with 753b) [1],Ki (BCL-2 E114A Q118A) [nM],"PolyUb chain formation retained by E114A, share of the WT activity (BCL-2 E114A)"
30.3 ± 4.5,Cc1ncsc1-c1ccc(C(C)NC(=O)C2CC(O)CN2C(=O)C(NC(=O)CCCCCCC(=O)N2CCN(CC3(C)CCC(c4ccc(Cl)cc4)=C(CN4CCN(c5ccc(C(=O)NS(=O)(=O)c6ccc(NC(CCN7CCOCC7)CSc7ccccc7)c(S(=O)(=O)C(F)(F)F)c6)cc5)CC4)C3)CC2)C(C)(C)C)cc1 (centres unmarked) [753b],,,,
,Cc1ncsc1-c1ccc([C@H](C)NC(=O)[C@@H]2C[C@@H](O)CN2C(=O)[C@@H](NC(=O)CN2CCN(CC(=O)N3CCN(C[C@]4(C)CCC(c5ccc(Cl)cc5)=C(CN5CCN(c6ccc(C(=O)NS(=O)(=O)c7ccc(N[C@H](CCN8C[C@@H]9C[C@H]8CO9)CSc8ccccc8)c(S(=O)(=O)C(F)(F)F)c7)cc6)CC5)C4)CC3)CC2)C(C)(C)C)cc1 [WH244],5.8 ± 0.6,tighter complex,9.6 ± 0.7,10-12%
